Values quoted from earlier work in US12599645B2, “Antibodies which bind to lysophosphatidic acid receptor 1 (LPAR1)” (DJS ANTIBODIES LTD, priority 2021, dated 2026).
Like-named read-outs stand apart in the source and are kept apart here.

Tested on: diabetic nephropathy
Settings: 8 weeks, cited from earlier work

SMILES	24 h albuminuria vs untreated controls, reduction (db/db (moderate model), Li et al. (2017)) [%]	24 h albuminuria vs untreated controls, reduction (STZ-induced (early disease model), Lee J H et al. (2019)) [% reduction]
Cc1noc(-c2ccc(CSCCC(=O)O)cc2)c1NC(=O)OC(C)c1ccccc1Cl (centres unmarked) [Ki16425]	~30	–
Cc1noc(-c2ccc(-c3ccc(CC(=O)O)cc3)cc2)c1NC(=O)O[C@H](C)c1ccccc1 [AM095]	–	~30
